Series [1] in a line: Cloud point measurement (absorbance at 500 nm as a function of temperature). It counts as physicochemical. As to conditions: 1% aqueous solutions. How it is done: Consistent with the standard method for measuring the cloud point of surfactants, the cloud point of each of the above blends was measured at a total concentration of 1% w/w in water using a Perkin Elmer spectrophotometer fitted with a PTP6 temperature controller. The absorbance of the solution at 500 nm wavelength was determined as a function of temperature. The cloud point was recorded as the onset of a rapid increase in absorbance as the solution began to cloud.
Cloud point—the measurements relied on the same method as for ‘Example 1’
Cloud points—were measured using the same method as in Example 1.
(§1) This example provides de-gelling, cloud point and adjuvancy data for dodecyl 23 ethoxylate with n-hexyl cap and hexadecyl 20 ethoxylate with n-hexyl cap Cloud points were measured as described in example 1 for 1% aqueous solutions of the capped and uncapped surfactants both individually and as blends (see Table 30). Degelling temperatures were also measured as outlined in example 1 for 25, 30, 35 and 40% aqueous solutions of the capped and uncapped surfactants both individually and as blends (see Table 31).
(§2) This example provides de-gelling, cloud point and adjuvancy data for oleyl 20 ethoxylate with n-butyl, n-pentyl or benzyl ether caps end capped oleyl 20 ethoxylate. Cloud points were measured as described in example 1 for 1% aqueous solutions of the capped and uncapped surfactants both individually and as blends. Degelling temperatures were also measured as outlined in example 1 for 25, 30, 35 and 40% aqueous solutions o of the capped and uncapped surfactants both individually and as blends.

Series [2] can be described thus: De-gelling temperature of aqueous surfactant blends by low shear rheology (Bohlin Gemini rheometer, storage modulus vs temperature). It counts as physicochemical. Here is the method: The temperatures at which blends of capped and uncapped surfactants de-gel were determined by standard low shear rheology with a Bohlin™ Gemini rheometer. The storage modulus (G′) at 1 Hz was determined at a strain of 0.001-0.002 in a standard C14 cup and bob geometry over a temperature range of 5-70° C., the exact range depending on the de-gelling point of the sample. Plots of storage modulus versus temperature were constructed and the de-gelling temperature was taken to be the point at which the modulus begins to fall rapidly from its high value in the gelled state (typically ca. 10^5 Pa) down to the final value in the de-gelled state (less than 10 Pa). Blends of surfactants were prepared at from 25 to 40% w/w total surfactant concentration in water. Samples were left in an oven at 55° C. for several days to ensure that the mixtures were homogeneous. Samples were placed in the C14 cup and the samples were de-gelled by raising the temperature in the rheometer, the bob was then inserted and the sample was then cooled at 1° C./min, whilst the storage modulus was regularly recorded during the cooling. Once the final temperature had been reached (i.e. when the sample had gelled), the temperature was then increased again and the modulus again recorded. The de-gelling temperature was determined from the increasing temperature cycle.
Degelling temperatures—the measurements relied on the same method as for ‘Example 1’ but just at 30% w/w total surfactant concentration.
De-gelling temperatures were measured using the same method as in Example 1.
as §1, §2

In the next series the test system is Avena fatua (AVEFA). Kind of series: Glasshouse adjuvancy test for pinoxaden on AVEFA. It counts as in vivo. As to conditions: pinoxaden 15 g ai/ha, total surfactant 0.2% w/v, 21 days. How it is done:
The efficacy of 1:1 blends of oleyl 20EO with oleyl 20EO with either n-hexanoyl, n-octanoyl or 2-ethyl hexanoyl ester caps as adjuvants for the herbicide pinoxaden was tested in a glasshouse against two weed species, sown into standard soil in pots and cultivated under controlled conditions in a glasshouse (20/16° C. day/night; 16 hours light; 65% humidity). Pinoxaden was added to the spray tank as a standard EC (emulsifiable concentrate) formulation. The plants were sprayed with pinoxaden at rates of 7.5 or 15 grams of pesticide per hectare using a laboratory track sprayer which delivered the aqueous spray composition at a rate of 200 litres per hectare, using a flat fan nozzle (Teejet 11002VS) at 2 bar. The spray solutions also contained the oleyl 20EO alone or in the 1:1 blends with the capped surfactants. The adjuvants were added to the spray solution at a total surfactant rate of 0.2% w/v. All spray solutions also contained 10% w/w of iso-propanol. The weed species and their BBCH growth stage at spraying were Avena fatua (AVEFA; growth stage 13) and Setaria viridis (SETVI; growth stage 13). Each spray test was replicated three times. The test plants were then grown in a glasshouse under controlled conditions (20/16° C. day/night; 16 hours light; 65% humidity) and watered twice a day. The efficacy of the herbicide was assessed visually and expressed as a percentage of the leaf area killed. Samples were assessed at a time period of 21 days following application.
Dodecyl 23EO and hexadecyl 20EO were capped with an n-hexyl ether cap. The efficacy of 1:1 blends of these with their uncapped counterparts were tested as adjuvants for the herbicide pinoxaden was tested in a glasshouse against two weed species, sown into standard soil in pots and cultivated under controlled conditions in a glasshouse (20/16° C. day/night; 16 hours light; 65% humidity). Pinoxaden was added to the spray tank as a standard EC (emulsifiable concentrate) formulation. The plants were sprayed with pinoxaden at a.i. rates of 7.5 or 15 grams per hectare using a laboratory track sprayer which delivered the aqueous spray composition at a rate of 200 litres per hectare, using a flat fan nozzle (Teejet 11002VS) at 2 bar. The spray solutions tested included the capped and uncapped alone or in the 1:1 blends with the capped surfactants. The adjuvants were added to the spray solution at a total surfactant rate of 0.2% w/v. All spray solutions also contained 10% w/w of iso-propanol. The weed species and their BBCH growth stage at spraying was Avena fatua (AVEFA; growth stage 12). Each spray test was replicated three times. The test plants were then grown in a glasshouse under controlled conditions (20/16° C. day/night; 16 hours light; 65% humidity) and watered twice a day. The efficacy of the herbicide was assessed visually and expressed as a percentage of the leaf area killed. Samples were assessed at a time period of 21 days following application.
Oleyl 20EO was capped with -butyl, n-pentyl and n-benzyl caps. The efficacy of 1:1 blends of these with their uncapped counterparts were tested as adjuvants for the herbicide pinoxaden was tested in a glasshouse against two weed species, sown into standard soil in pots and cultivated under controlled conditions in a glasshouse (20/16° C. day/night; 16 hours light; 65% humidity). Pinoxaden was added to the spray tank as a standard EC (emulsifiable concentrate) formulation. The plants were sprayed with pinoxaden at a.i. rates of 7.5 or 15 grams per hectare using a laboratory track sprayer which delivered the aqueous spray composition at a rate of 200 litres per hectare, using a flat fan nozzle (Teejet 11002VS) at 2 bar. The spray solutions tested included the capped and uncapped alone or in the 1:1 blends with the capped surfactants. The adjuvants were added to the spray solution at a total surfactant rate of 0.2% w/v. All spray solutions also contained 10% w/w of iso-propanol.

[3] abbreviates: total surfactant concentration 25% w/w, Table 31.
Where [4] appears, read: total surfactant concentration 30% w/w, Table 31.
Setting [5] is: total surfactant concentration 35% w/w, Table 31.
The mark [6] stands for this setting: total surfactant concentration 40% w/w, Table 31.
[7] abbreviates: total surfactant concentration 25% w/w, Table 35.
Setting [8] is: total surfactant concentration 30% w/w, Table 35.
Where [9] appears, read: total surfactant concentration 35% w/w, Table 35.
[10] abbreviates: total surfactant concentration 40% w/w, Table 35.

Regarding `CCCCCCCCCCCCCCCCOCCOCCOCCOCCOCCOCCOCCOCCOCCOCCOCCOCCOCCOCCOCCOCCOCCOCCOCCOCCO` [Hexadecyl 20EO, hexadecyl 20 ethoxylate], the Cloud point in series [1] (Table 30) was >90.0 °C. Moreover, the De-gelling temperature in series [2] (setting [3]) was found to be 23.2 °C; in series [2] (setting [4]), 48.7 °C; in series [2] (setting [5]) it was 66.1 °C; in series [2] (setting [6]), 74.1 °C. The compound also gave a Mean control in the series on Avena fatua (AVEFA) (Example 7, growth stage 12) of 90.3%.

The compound Oleyl 20EO n-pentyl ether showed a Cloud point in series [1] (Table 34) of 55.9 °C. The De-gelling temperature in series [2] (setting [7]) was <5 °C; in series [2] (setting [8]), 27.3 °C; in series [2] (setting [9]), 34.0 °C; in series [2] (setting [10]), 36.1 °C. Further, in the series with Avena fatua (AVEFA) (Example 9, growth stage 12), the Mean control is 87.7%.

For dodecyl 23 ethoxylate [Dodecyl 23EO], the Cloud point in series [1] (Table 30) was >90.0 °C. Besides, the De-gelling temperature came to 21.1 °C in series [2] (setting [3]), 38.6 °C in series [2] (setting [4]), 55.0 °C in series [2] (setting [5]) and 64.3 °C in series [2] (setting [6]). The Mean control with Avena fatua (AVEFA) (Example 7, growth stage 12) amounted to 83.3%.

Take Hexadecyl 20EO n-hexyl ether: the Cloud point in series [1] (Table 30) stood at 55.9 °C. Besides, the De-gelling temperature is <5 °C in series [2] (setting [3]), <5 °C in series [2] (setting [4]), 5.7 °C in series [2] (setting [5]) and 19.6 °C in series [2] (setting [6]). The compound also yielded a Mean control in the series on Avena fatua (AVEFA) (Example 7, growth stage 12) of 93.3%.

Compound `CCCCCCCC/C=C\CCCCCCCCOCCOCCOCCOCCOCCOCCOCCOCCOCCOCCOCCOCCOCCOCCOCCOCCOCCOCCOCCOCCOCc1ccccc1` [Oleyl 20EO n-benzyl ether] displayed a Cloud point in series [1] (Table 34) of 38.7 °C. The De-gelling temperature in series [2] (setting [7]) is <5 °C; in series [2] (setting [8]), <5 °C; in series [2] (setting [9]), 5 °C; in series [2] (setting [10]), 15.1 °C. The compound further registered a Mean control with Avena fatua (AVEFA) (Example 9, growth stage 12) of 89.3%.
